Measurements: US20090221538A1, “METHODS OF TREATING MULTIPLE SCLEROSIS BY ADMINISTERING PULSE DOSE CALCITRIOL” (priority 2008, published 2009)
Entries after “also recorded” stand apart in the source; their conditions may differ.

What was measured:
[1] = tested on: splenocytes; assay: Splenocyte staining and FACS analysis after pulse dose; type: in vivo, mouse
Protocol: For flow cytometric analysis, splenocytes were dissociated into ice-cold Hank's balanced salt solution with HEPES buffer, and RBC were depleted. Duplicate samples (10^6 cells/sample) were stained (30-45 min on ice) with optimal amounts of the mAb conjugates in staining buffer (PBS pH 7.3 with 5% heat-inactivated FBS and 0.1% NaN3). Reference samples stained with single-color mAb served as controls to select fluorescence gates and flow cytometer compensation. The fluorescent mAb conjugates used for this analysis were FITC-labeled mAb to CD4 (clone L3T4) and APC-labeled mAb to CD11b (clone Macla) from Southern Biotechnology, and PE-labeled mAb to CD8 (clone alpha) and biotin-labeled mAb to CD45R (B220) from Invitrogen. PerCP-Cy5.5 was from BD/Pharmingan. Stained samples were analyzed on a FACScalibur™ using CELLQuest™ software (BD Biosciences, Franklin Lakes, N.J.).

[2] = tested on: EAE; details: mouse, in vivo; cited from earlier work
[3] = splenocytes 14 days after a 175 ng pulse dose, no significant differences from normal control mice

## C=C1/C(=C\C=C2/CCC[C@]3(C)[C@@H]([C@H](C)CCCC(C)(C)O)CC[C@@H]23)C[C@@H](O)C[C@@H]1O [1,25-(OH)2D3, 1,25-dihydroxy vitamin D3]
[1]; 14 days after a 175 ng pulse dose, no significant differences from normal control mice
  numbers of splenocytes recovered: 43±9 million cells
[1]; B10.PL mice with EAE, 175 ng pulse dose, two weeks post treatment
  depletion of splenic lymphocytes and monocytes / immunodeficient state: did deplete; also recorded: did not result in an immunodeficient state
[1]; [3]
  proportion of B220+ B lymphocytes: 63±3%
  proportion of CD4+ T lymphocytes: 18±1%
  proportion of CD8+ T lymphocytes: 11±1%
  proportion of CD11b+ monocytes: 18±2%
[2]
  EAE disease induction: strongly inhibited
  EAE progression: prevented progression
  established EAE disease: reversed established disease
